In article PMC8965496, “Combating multidrug resistance and metastasis of breast cancer by endoplasmic reticulum stress and cell-nucleus penetration enhanced immunochemotherapy” (Theranostics, 2022):

Test system: MCF-7/ADR drug resistant cell line
Assay: IC50 of DOX against drug-resistant cell line
Format: cell-based
Conditions: ratio MCF-7/ADR to MCF-7

IC50 in MCF-7/ADR cells relative to MCF-7 cells: 108.07 fold
SMILES: COc1cccc2c1C(=O)c1c(O)c3c(c(O)c1C2=O)C[C@@](O)(C(=O)CO)C[C@@H]3O[C@H]1C[C@H](N)[C@H](O)[C@H](C)O1 [DOX, doxorubicin]
